Test results reported in US10004701B2, “Methods and compositions for treating infection” (UNIVERSITY OF ROCHESTER, priority 2012, dated 2018).
Structures can show the parent of a compound that is named as a salt. Where two headings read alike, the source gives them in different places.

Assays:
Assay in all cases: AK assay 384-well format, Prestwick library screening
E. coli = type: cell-based, Escherichia coli; details: Escherichia coli, 3 h, 50 μM final drug concentration
K. pneumoniae = type: cell-based, Klebsiella pneumoniae; details: Klebsiella pneumoniae, 3 h, 50 μM final drug concentration
E. faecium = type: cell-based, Enterococcus faecium; details: Enterococcus faecium, 3 h, 50 μM final drug concentration
E. cloacae = type: cell-based, Enterobacter cloacae; details: Enterobacter cloacae, 3 h, 50 μM final drug concentration
[1] = tested on: A. baumannii strain 98-37-09; type: cell-based, Acinetobacter baumannii; details: Acinetobacter baumannii, 983709, 3 h, 50 μM final drug concentration
[2] = tested on: S. aureus strain USA300-0114; type: cell-based, Staphylococcus aureus; details: Staphylococcus aureus, USA300, 3 h, 50 μM final drug concentration
P. aeruginosa = type: cell-based, Pseudomonas aeruginosa; details: Pseudomonas aeruginosa, 3 h, 50 μM final drug concentration
[3] = planktonic, cutoff for positive 3-fold increase, read-out: AK-based Prestwick Library Screening Results, K. pneumoniae (fold increase in extracellular AK activity)
[4] = planktonic, cutoff for positive 3-fold increase, read-out: AK-based Prestwick Library Screening Results, E. faecium (fold increase in extracellular AK activity)
[5] = planktonic, cutoff for positive 3-fold increase, read-out: AK-based Prestwick Library Screening Results, E. cloacae (fold increase in extracellular AK activity)
[6] = planktonic, cutoff for positive 3-fold increase, read-out: AK-based Prestwick Library Screening Results, A. baumannii (fold increase in extracellular AK activity)
[7] = planktonic, cutoff for positive 3-fold increase, read-out: AK-based Prestwick Library Screening Results, S. aureus (fold increase in extracellular AK activity)
[8] = planktonic, cutoff for positive 3-fold increase, read-out: AK-based Prestwick Library Screening Results, P. aeruginosa (fold increase in extracellular AK activity)
[9] = 384-well format, cutoff for positive-scoring molecules 3-fold increase, read-out: AK-based Prestwick Library Screening Results, E. coli (increase in extracellular AK activity)
[10] = 384-well format, cutoff for positive-scoring molecules 3-fold increase, read-out: AK-based Prestwick Library Screening Results, K. pneumoniae (increase in extracellular AK activity)
[11] = 384-well format, cutoff for positive-scoring molecules 3-fold increase, read-out: AK-based Prestwick Library Screening Results, E. faecium (increase in extracellular AK activity)
[12] = 384-well format, cutoff for positive-scoring molecules 3-fold increase, read-out: AK-based Prestwick Library Screening Results, E. cloacae (increase in extracellular AK activity)
[13] = 384-well format, cutoff for positive-scoring molecules 3-fold increase, read-out: AK-based Prestwick Library Screening Results, A. baumannii (increase in extracellular AK activity)
[14] = 384-well format, cutoff for positive-scoring molecules 3-fold increase, read-out: AK-based Prestwick Library Screening Results, S. aureus (increase in extracellular AK activity)
[15] = 384-well format, cutoff for positive-scoring molecules 3-fold increase, read-out: AK-based Prestwick Library Screening Results, P. aeruginosa (increase in extracellular AK activity)
[16] = planktonic, cutoff for positive-scoring molecules 3-fold increase, read-out: AK-based Prestwick Library Screening Results, E. coli (fold increase in extracellular AK activity)
[17] = planktonic, cutoff for positive-scoring molecules 3-fold increase, read-out: AK-based Prestwick Library Screening Results, K. pneumoniae (fold increase in extracellular AK activity)
[18] = planktonic, cutoff for positive-scoring molecules 3-fold increase, read-out: AK-based Prestwick Library Screening Results, E. faecium (fold increase in extracellular AK activity)
[19] = planktonic, cutoff for positive-scoring molecules 3-fold increase, read-out: AK-based Prestwick Library Screening Results, E. cloacae (fold increase in extracellular AK activity)
[20] = planktonic, cutoff for positive-scoring molecules 3-fold increase, read-out: AK-based Prestwick Library Screening Results, A. baumannii (fold increase in extracellular AK activity)
[21] = planktonic, cutoff for positive-scoring molecules 3-fold increase, read-out: AK-based Prestwick Library Screening Results, S. aureus (fold increase in extracellular AK activity)
[22] = planktonic, cutoff for positive-scoring molecules 3-fold increase, read-out: AK-based Prestwick Library Screening Results, P. aeruginosa (fold increase in extracellular AK activity)

For `COc1c2c(cc3c1OCO3)CCN(C)C2` [Hydrocotarnine hydrobromide], the fold induction at 50 µM (E. coli; planktonic, […], read-out: AK-based Prestwick Library Screening Results, E. coli (fold increase in extracellular AK activity)) was 1.2, the fold induction at 50 µM (K. pneumoniae; [3]) was 0.9 and the fold induction at 50 µM (E. faecium; [4]) was 1. It also gave a fold induction at 50 µM (E. cloacae; [5]) of 1.4, a fold induction at 50 µM [1, 6] of 1.3 and a fold induction at 50 µM [2, 7] of 1. The fold induction at 50 µM (P. aeruginosa; [8]) was 1.2.

In the case of `NS(=O)(=O)c1cc2c(cc1C(F)(F)F)NCNS2(=O)=O` [Hydroflumethiazide], the fold induction at 50 µM (E. coli; [9]) is reported as 0.7, the fold induction at 50 µM (K. pneumoniae; [10]) is reported as 0.5 and the fold induction at 50 µM (E. faecium; [11]) is reported as 0.9. The fold induction at 50 µM (E. cloacae; [12]) was 0.7, the fold induction at 50 µM [1, 13] was 0.7 and the fold induction at 50 µM [2, 14] was 0.5. It also gave a fold induction at 50 µM (P. aeruginosa; [15]) of 0.5.

`CC[C@H]1CN2CC[C@H]1C[C@H]2[C@H](O)c1ccnc2ccc(OC)cc12` [Hydroquinine hydrobromide hydrate] showed a fold induction at 50 µM (E. coli; planktonic, cutoff for positive 3-fold increase, read-out: AK-based Prestwick Library Screening Results, E. coli (fold increase in extracellular AK activity)) of 1.2, a fold induction at 50 µM (K. pneumoniae; [3]) of 1.3 and a fold induction at 50 µM (E. faecium; [4]) of 1.1. It also gave a fold induction at 50 µM (E. cloacae; [5]) of 1.6, a fold induction at 50 µM [1, 6] of 1.2 and a fold induction at 50 µM [2, 7] of 1. For the same compound, the fold induction at 50 µM (P. aeruginosa; [8]) was 1.2.

For `OCCOCCN1CCN(C(c2ccccc2)c2ccc(Cl)cc2)CC1` (stereo not drawn) [Hydroxyzine dihydrochloride], the fold induction at 50 µM (E. coli; planktonic E. coli, 384-well, cutoff for positive-scoring molecules 3-fold increase, read-out: AK-based Prestwick Library Screening Results: E. coli (increase in extracellular AK activity)) was 1, the fold induction at 50 µM (K. pneumoniae; planktonic K. pneumoniae, 384-well, cutoff for positive-scoring molecules 3-fold increase, read-out: AK-based Prestwick Library Screening Results: K. pneumoniae (increase in extracellular AK activity)) was 0.8 and the fold induction at 50 µM (E. faecium; planktonic E. faecium, 384-well, cutoff for positive-scoring molecules 3-fold increase, read-out: AK-based Prestwick Library Screening Results: E. faecium (increase in extracellular AK activity)) was 0.9. For the same compound, the fold induction at 50 µM (E. cloacae; planktonic E. cloacae, 384-well, cutoff for positive-scoring molecules 3-fold increase, read-out: AK-based Prestwick Library Screening Results: E. cloacae (increase in extracellular AK activity)) was 1.6, the fold induction at 50 µM ([1]; planktonic A. baumannii, 384-well, cutoff for positive-scoring molecules 3-fold increase, read-out: AK-based Prestwick Library Screening Results: A. baumannii (increase in extracellular AK activity)) was 1 and the fold induction at 50 µM ([2]; planktonic S. aureus, 384-well, cutoff for positive-scoring molecules 3-fold increase, read-out: AK-based Prestwick Library Screening Results: S. aureus (increase in extracellular AK activity)) was 0.9. The fold induction at 50 µM (P. aeruginosa; planktonic P. aeruginosa, 384-well, cutoff for positive-scoring molecules 3-fold increase, read-out: AK-based Prestwick Library Screening Results: P. aeruginosa (increase in extracellular AK activity)) was 1.

For `Cc1cc(=O)oc2cc(O)ccc12` [Hymecromone], the fold induction at 50 µM (E. coli; [16]) was 0.9, the fold induction at 50 µM (K. pneumoniae; [17]) was 0.7 and the fold induction at 50 µM (E. faecium; [18]) was 1. For the same compound, the fold induction at 50 µM (E. cloacae; [19]) was 1.1, the fold induction at 50 µM [1, 20] was 0.8 and the fold induction at 50 µM [2, 21] was 1. For the same compound, the fold induction at 50 µM (P. aeruginosa; [22]) was 1.

`c1ccc2c(c1)OCC(C1=NCCN1)O2` (stereo not drawn) [Idazoxan hydrochloride] was tested, and the fold induction at 50 µM (E. coli; cutoff for positive-scoring molecules 3-fold increase, read-out: AK-based Prestwick Library Screening Results, E. coli (fold increase in extracellular AK activity)) was 1.1, the fold induction at 50 µM (K. pneumoniae; cutoff for positive-scoring molecules 3-fold increase, read-out: AK-based Prestwick Library Screening Results, K. pneumoniae (fold increase in extracellular AK activity)) was 1 and the fold induction at 50 µM (E. faecium; cutoff for positive-scoring molecules 3-fold increase, read-out: AK-based Prestwick Library Screening Results, E. faecium (fold increase in extracellular AK activity)) was 1. It also gave a fold induction at 50 µM (E. cloacae; cutoff for positive-scoring molecules 3-fold increase, read-out: AK-based Prestwick Library Screening Results, E. cloacae (fold increase in extracellular AK activity)) of 1.5, a fold induction at 50 µM ([1]; cutoff for positive-scoring molecules 3-fold increase, read-out: AK-based Prestwick Library Screening Results, A. baumannii (fold increase in extracellular AK activity)) of 1.1 and a fold induction at 50 µM ([2]; cutoff for positive-scoring molecules 3-fold increase, read-out: AK-based Prestwick Library Screening Results, S. aureus (fold increase in extracellular AK activity)) of 1.1. It also gave a fold induction at 50 µM (P. aeruginosa; cutoff for positive-scoring molecules 3-fold increase, read-out: AK-based Prestwick Library Screening Results, P. aeruginosa (fold increase in extracellular AK activity)) of 1.2.

`O=c1[nH]c(=O)n([C@H]2C[C@H](O)[C@@H](CO)O2)cc1I` [Idoxuridine] showed a fold induction at 50 µM (E. coli; [9]) of 0.7, a fold induction at 50 µM (K. pneumoniae; [10]) of 0.6 and a fold induction at 50 µM (E. faecium; [11]) of 1. For the same compound, the fold induction at 50 µM (E. cloacae; [12]) was 0.8, the fold induction at 50 µM [1, 13] was 0.7 and the fold induction at 50 µM [2, 14] was 0.7. The fold induction at 50 µM (P. aeruginosa; [15]) was 0.6.

`O=P1(NCCCl)OCCCN1CCCl` (stereo not drawn) [Ifosfamide] showed a fold induction at 50 µM (E. coli; [16]) of 9, a fold induction at 50 µM (K. pneumoniae; [17]) of 0.7 and a fold induction at 50 µM (E. faecium; [18]) of 0.8. For the same compound, the fold induction at 50 µM (E. cloacae; [19]) was 1.4, the fold induction at 50 µM [1, 20] was 0.8 and the fold induction at 50 µM [2, 21] was 0.8. The fold induction at 50 µM (P. aeruginosa; [22]) was 0.9.

Work on `O=C(NCNC(=O)NC1C(=O)NC(=O)N1CO)NC1C(=O)NC(=O)N1CO` (stereo not drawn) [Imidurea] yielded a fold induction at 50 µM (E. coli; planktonic E. coli, […], read-out: AK-based Prestwick library screening result, E. coli (fold increase in extracellular AK activity)) of 0.9, a fold induction at 50 µM (K. pneumoniae; planktonic K. pneumoniae, […], read-out: AK-based Prestwick library screening result, K. pneumoniae (fold increase in extracellular AK activity)) of 0.7 and a fold induction at 50 µM (E. faecium; planktonic E. faecium, […], read-out: AK-based Prestwick library screening result, E. faecium (fold increase in extracellular AK activity)) of 0.9. It also gave a fold induction at 50 µM (E. cloacae; planktonic E. cloacae, […], read-out: AK-based Prestwick library screening result, E. cloacae (fold increase in extracellular AK activity)) of 1.2, a fold induction at 50 µM ([1]; planktonic A. baumannii, […], read-out: AK-based Prestwick library screening result, A. baumannii (fold increase in extracellular AK activity)) of 0.8 and a fold induction at 50 µM ([2]; planktonic S. aureus, […], read-out: AK-based Prestwick library screening result, S. aureus (fold increase in extracellular AK activity)) of 0.7. The fold induction at 50 µM (P. aeruginosa; planktonic P. aeruginosa, […], read-out: AK-based Prestwick library screening result, P. aeruginosa (fold increase in extracellular AK activity)) was 0.8.
